Format in all cases: cell-based
Assay [1] concerns Thermo-Acidophilic Bacilli (Alicyclobacillus acidoterrestris ATCC 49025). The assay can be described thus: Agar plate dilution MIC test. The following applies: ATCC49025, 120 h, YSG agar medium, 50 ± 1 °C, 5 days, aerobic.
In assay [2] the test system is Bacillus cereus (Bacillus cereus IFO 13494). The assay is described as follows: Agar plate dilution MIC test. To be noted: IFO13494, Mueller Hinton Agar, 37 ± 1 °C, 18 to 20 hours, aerobic.
For assay [3], the system named is Bacillus welchii (Clostridium perfringens JCM 1290). The assay can be described thus: organism not typed. To be noted: 24 h.
The test system of assay [4] is Clostridium difficile (spores) (Clostridium difficile ATCC 9689). The assay is described as follows: Agar plate dilution MIC test. To be noted: Clostridioides difficile, ATCC9689; Clostridium difficile ATCC 9689 (spores); taurocholic acid-containing BHIA medium, 37 ± 1 °C, 18 to 20 hours, anaerobic.
The subject of assay [5] is Staphylococcus aureus (Staphylococcus aureus subsp. aureus NBRC 12732). The assay can be described thus: Agar plate dilution MIC test. The following applies: NBRC12732, Mueller Hinton Agar, 37 ± 1 °C, 18 to 20 hours, aerobic.

Each structure is given as a SMILES string. In brackets after ≈: the same amount, converted by molar mass.

Consider `COc1cc(O)c(CC=C(C)C)c2c1C(=O)CC(c1ccc(O)cc1)O2` (centres unmarked) [Isoxanthohumol], for which the MIC (commonly the smallest concentration in the dilution series that meets the test's criterion for growth inhibition) in assay [1] worked out at 25 µg/mL (≈ 70.5 µM); in assay [2], 50 µg/mL (≈ 141 µM); in assay [3] it was 50 µg/mL (≈ 141 µM); in assay [4], 50 µg/mL (≈ 141 µM); in assay [5], 50 µg/mL (≈ 141 µM).

(Values after patent US20210169078A1, “AGENT FOR SUPPRESSING MICROBIAL GROWTH, METHOD FOR PREVENTING MICROBIAL CONTAMINATION, AND BEVERAGE” (priority 2018, published 2021).)
